# Marks after values point to notes of the source that are not given here.
# Legend:
# [1] = system: zebra fish Crohn's disease model; experiment: Zebra fish Crohn's disease model (TNBS), efficacy; type: in vivo; conditions: for Inflammation regression ratio: based on neutrophil infiltration; for Number of Neutrophil: intestinal tissue, x ± SE, n = 10; for Ratio with the blank control group: neutrophil number
# [2] = system: zebra fish Crohn's disease model; experiment: Zebra fish Crohn's disease model (TNBS), efficacy; type: in vivo; conditions: 48 hours
# Description: Crohn's disease model (mainly inflammation) was built by using TNBS (2,4,6-trinitrobenzenesulfonic acid), and 30 zebra fishes were randomly divided into each treating group. […] Image analysis software was used to analyze the pictures. Moreover, the intestinal mucosal thickness, intestinal lumen diameter and intestinal lumen area were observed carefully under a microscope and the intestinal lumen diameter and intestinal lumen area were analyzed quantitatively. Therapeutical efficacy of the tested drug in zebra fish Crohn's disease was calculated in accordance with the intestinal lumen area in each group. The calculation formula was presented as follows: Therapeutical efficacy (%)=[1−(the administration group−the blank control group)/(the model group−the blank control group)]×100%
# Statistically analyzed results were expressed as mean±SE. Variance analysis was used for comparison among many groups, and Dunnett's T test for comparison between two groups.
# [3] = Solubility of the drug in DMSO and fish farm water; type: physicochemical
# TNBS-induced UC rats = experiment: TNBS-induced UC rat model, different administration routes; type: in vivo; conditions: for Gross morphological injury score / Ulcer ratio: 5 days
# Description: 4 Dose Designing and Grouping • 4.1 Grouping: quarantine-qualified 84 rats were all used for making UC model. The successful rats were randomly divided into 6 groups: the model control group, the positive control group, the andrographolide low-dose intragastric group, the andrographolide high-dose intragastric group, the andrographolide low-dose intracolonical group and the andrographolide high-dose intracolonical group, 14 rats per group. • 4.2 Dose: the same doses were adopted in both intragastric and intracolonical groups. Animals were not treated in the model control group, the positive control group (mesalazine enteric tablet, 420 mg·kg^−1·d^−1), the andrographolide low-dose intragastric group (30 mg·kg^−1·d^−1), the andrographolide high-dose intragastric group (90 mg·kg^−1·d^−1), the andrographolide low-dose intracolonical group (30 mg·kg^−1·d^−1) and the andrographolide high-dose intracolonical group (90 mg·kg^−1·d^−1).
# 5. Method • 5.1 Method of making UC model: the rats were anesthetized. 2 mm-diameter latex tube was gently inserted into the position about 8 cm inside the body of the rats through anus, and TNBS in 50% ethanol solution (TNBS 125 mg/kg) was injected into intestinal lumen with an injector by one time, 0.5 ml/rat. The tail of the rat was lifted up for 30 s to make the model making agent (i.e., TNBS) fully infiltrate into the intestinal lumen of the rats. • 5.2 Method of administration: the same dose (1 mL/100 g) was adopted in both intragastric and intracolonical administration, once daily for consecutive 5 days. • 5.3 Method for sampling in experiment: 2 hours after the last administration, the rats were killed by cervical vertebra dislocation and abdomen was opened to separate the colon. Along mesenteric side, the intestinal lumen was cut and rinsed with 4° C. normal saline and spread on a plastic plate. • 5.4 Scoring method for colon gross morphological injury was referred to scoring method for mucosal injury (Bjelkengren G, Aronsen K F, Augustsson N E, etc. Radioprotective effect of local administration of lysine vasopressin and triglycyl lysine vasopressin on the rectal mucosa in rats[J]. Acta Oncol, 1995, 34(4):487-92) to record the mucosal injury score: dotted line blooding and small red spots (<1 mm): 1 score, piece blooding and big red spots (=1 mm): 3 score; and erosion and ulcer: 5 score.
# Data were expressed as mean+standard deviation (x±S). All numerical variables were analyzed with SPSS13.0 software by one-way ANOVA. T-test analysis was used for inter-group comparison.
# [4] = andrographolide high-dose 90 mg/kg, intracolonical
# [5] = andrographolide high-dose 90 mg/kg, intragastric
# [6] = andrographolide low-dose 30 mg/kg, intracolonical
# [7] = andrographolide low-dose 30 mg/kg, intragastric
compound,measurement,setting,value
C=C1CC[C@@H]2[C@](C)(CO)[C@H](O)CC[C@@]2(C)[C@@H]1C/C=C1/C(=O)OC[C@H]1O [Andrographolide],Intestinal lumen area reduced by (therapeutical efficacy),"[1]; andrographolide 500 μg/ml, 48 hours",65±10.1%
same,Inflammation regression ratio,[1]; andrographolide 50 μg/ml,45 ± 3.7 %
same,Inflammation regression ratio,"[1]; andrographolide 50 μg/ml, listed as andrographolide",45±3.74%
same,Inflammation regression ratio,[1]; andrographolide 100 μg/ml,46 ± 3.7 %
same,Inflammation regression ratio,"[1]; andrographolide 100 μg/ml, listed as andrographolide",46±3.74%
same,Inflammation regression ratio,[1]; andrographolide 250 μg/ml,63 ± 4.4 %
same,Inflammation regression ratio,"[1]; andrographolide 250 μg/ml, listed as andrographolide",63±4.42%
same,Inflammation regression ratio,[1]; andrographolide 500 μg/ml,79 ± 9.0 %
same,Inflammation regression ratio,"[1]; andrographolide 500 μg/ml, listed as andrographolide",79±8.98%
same,Number of Neutrophil,[1]; andrographolide 50 μg/ml,18 ± 0.54
same,Number of Neutrophil,[1]; andrographolide 100 μg/ml,17 ± 0.54
same,Number of Neutrophil,[1]; andrographolide 250 μg/ml,15 ± 0.64
same,Number of Neutrophil,[1]; andrographolide 500 μg/ml,13 ± 1.30
same,Ratio with the blank control group,[1]; andrographolide 50 μg/ml,1.97 ± 0.06
same,Ratio with the blank control group,[1]; andrographolide 100 μg/ml,1.96 ± 0.06
same,Ratio with the blank control group,[1]; andrographolide 250 μg/ml,1.67 ± 0.07
same,Ratio with the blank control group,[1]; andrographolide 500 μg/ml,1.40 ± 0.15
same,Intestinal lumen area reduced by (therapeutical efficacy),[2]; andrographolide 50 μg/ml,38±12.9%
same,Intestinal lumen area reduced by (therapeutical efficacy),[2]; andrographolide 100 μg/ml,49±8.9%
same,Intestinal lumen area reduced by (therapeutical efficacy),[2]; andrographolide 250 μg/ml,65±14.7%
same,solubility,"[3]; DMSO, organic solvent or mixture",~250 mg/mL
same,Concentration at which the drug began to precipitate,[3]; fish farm water,≥ 500 µg/mL
same,Gross morphological injury score,TNBS-induced UC rats; [4],1.96 ± 1.09
same,Ulcer ratio,TNBS-induced UC rats; [4],17.21** %
same,Gross morphological injury score,TNBS-induced UC rats; [5],3.25 ± 1.98
same,Ulcer ratio,TNBS-induced UC rats; [5],29.21** %
same,"Formless watery stool symptoms, course","TNBS-induced UC rats; andrographolide high-dose intragastric and intracolonical groups, 90 mg/kg",totally disappeared on the 4th˜5th days
same,Gross morphological injury score,TNBS-induced UC rats; [6],6.53 ± 2.12
same,Ulcer ratio,TNBS-induced UC rats; [6],38.54* %
same,Gross morphological injury score,TNBS-induced UC rats; [7],6.71 ± 2.57
same,Ulcer ratio,TNBS-induced UC rats; [7],45.69* %
